Results from patent US7803811B2, “1,2,3-substituted indolizine derivatives, inhibitors of FGFs, method for preparing them and pharmaceutical compositions containing them” (Sanofi-Aventis, priority 2002, dated 2010).

melting point: 142 °C
SMILES: COc1cc(C(=O)c2c(C)c(OCCO)c3ccccn23)ccc1[N+](=O)[O-] [Example 80, [1-(2-Hydroxyethoxy)-2-methylindolizin-3-yl](3-methoxy-4-nitrophenyl)methanone]
